Measurements taken from patent US20040224958A1, “Pyridopyrimidinone derivatives for treatment of neurodegenerative disease” (priority 2000, published 2004).
Read-outs that look alike come from different tables or passages of the source.

Experiments:
[1] = target: cdk4/D (Homo sapiens, UniProt P11802); assay: Cyclin-Dependent Kinase 4 (cdk4) Assay; type: biochemical; conditions: read-out: cdk4/D IC50
[2] = target: Cdk5/p25 (Homo sapiens, UniProt Q00535); assay: Cyclin-Dependent Kinase 5 High Throughput Screening (cdk5-HTS) Assay; type: biochemical; conditions: high throughput screen
Outline: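 IC50 determined from 33P incorporation into GST-RbCOOH captured on glutathione plates and read by scintillation counting. Reaction: 1.0 μg/mL Cdk5/p25, 20 μM [γ33P]ATP, pH 7.4 Tris buffer with MgCl2 and DTT, 30 min at room temperature, stopped with EDTA.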

[3] = target: cdk2/cyclinE (Homo sapiens, UniProt P24941); assay: Cyclin-Dependent Kinase Assay cdk2/cyclinE
[4] = target: cdk2/cyclinA (Homo sapiens, UniProt P24941); assay: Cyclin-Dependent Kinase Assay cdk2/cyclinA
[5] = target: cdc2/cyclinB (Homo sapiens, UniProt P06493); assay: Cyclin-Dependent Kinase Assay cdc2/cyclinB
cdc2/cyclinB, sequence (P06493 whole entry): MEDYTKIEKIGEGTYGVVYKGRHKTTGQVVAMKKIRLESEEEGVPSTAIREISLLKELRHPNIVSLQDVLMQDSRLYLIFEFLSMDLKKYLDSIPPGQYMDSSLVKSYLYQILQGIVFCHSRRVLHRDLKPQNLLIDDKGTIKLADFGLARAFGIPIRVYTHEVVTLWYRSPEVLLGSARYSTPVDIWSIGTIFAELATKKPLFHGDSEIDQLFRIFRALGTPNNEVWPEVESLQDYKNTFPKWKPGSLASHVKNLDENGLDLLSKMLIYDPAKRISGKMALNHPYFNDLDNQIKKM
cdc2/cyclinB, sequence (P14635 whole entry, further chain): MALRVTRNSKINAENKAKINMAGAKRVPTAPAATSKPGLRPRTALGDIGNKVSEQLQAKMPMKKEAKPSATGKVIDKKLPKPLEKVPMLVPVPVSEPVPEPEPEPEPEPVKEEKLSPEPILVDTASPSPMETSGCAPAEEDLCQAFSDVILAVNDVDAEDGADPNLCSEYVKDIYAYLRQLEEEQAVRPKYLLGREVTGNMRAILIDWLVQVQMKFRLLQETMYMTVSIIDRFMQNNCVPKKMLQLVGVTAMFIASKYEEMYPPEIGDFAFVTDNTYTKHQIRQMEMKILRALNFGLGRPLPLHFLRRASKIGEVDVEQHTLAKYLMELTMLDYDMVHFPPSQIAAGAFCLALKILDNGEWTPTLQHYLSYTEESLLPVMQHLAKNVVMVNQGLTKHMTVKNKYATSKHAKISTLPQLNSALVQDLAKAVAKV

cdk4/D, sequence (P11802 whole entry): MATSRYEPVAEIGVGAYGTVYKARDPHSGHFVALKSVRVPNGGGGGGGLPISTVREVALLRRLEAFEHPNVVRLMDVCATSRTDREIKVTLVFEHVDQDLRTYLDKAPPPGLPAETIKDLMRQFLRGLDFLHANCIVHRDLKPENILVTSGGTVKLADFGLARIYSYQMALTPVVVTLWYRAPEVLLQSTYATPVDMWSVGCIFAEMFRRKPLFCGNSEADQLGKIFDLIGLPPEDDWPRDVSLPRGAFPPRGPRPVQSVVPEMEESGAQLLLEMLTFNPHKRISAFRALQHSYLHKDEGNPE
cdk4/D, sequence (P24385 whole entry, further chain): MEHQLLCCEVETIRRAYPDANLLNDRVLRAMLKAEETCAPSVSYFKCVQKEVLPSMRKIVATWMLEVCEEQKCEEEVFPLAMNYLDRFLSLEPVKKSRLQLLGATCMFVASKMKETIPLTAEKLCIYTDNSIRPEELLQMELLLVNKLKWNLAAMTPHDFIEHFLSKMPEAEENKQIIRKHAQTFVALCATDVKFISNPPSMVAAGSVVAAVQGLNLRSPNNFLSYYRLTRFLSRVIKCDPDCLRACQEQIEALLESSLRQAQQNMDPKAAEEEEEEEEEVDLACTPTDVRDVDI

IC50 [1]	IC50 [2]	IC50 ([3]; cdk2/E IC50)	IC50 ([4]; cdk2/A IC50)	IC50 [5]	IC50 ([3]; read-out: cdk2/E IC50)	IC50 ([4]; read-out: cdk2/A IC50)	IC50 ([5]; read-out: cdk1/B IC50)	Molecule
490 nM	290 nM	240 nM	1100 nM	1100 nM				CCCCn1c(=O)ccc2cnc(Nc3cc([N+](=O)[O-])ccc3F)nc21 [Example 415, 8-Butyl-2-(2-fluoro-5-nitro-phenylamino)-8H-pyrido[2,3-d]pyrimidin-7-one]
150 nM	64 nM	310 nM	1300 nM	330 nM				CCC(CC)n1c(=O)ccc2cnc(Nc3ccc(Br)c(Cl)c3)nc21 [Example 507, 2-(4-Bromo-3-chloro-phenylamino)-8-(1-ethyl-propyl)-8H-pyrido[2,3-d]pyrimidin-7-one]
370 nM	52 nM	200 nM	150 nM	250 nM				CCC(C)n1c(=O)ccc2cnc(Nc3cc(F)cc(F)c3)nc21 (centres unmarked) [Example 472, 8-sec-Butyl-2-(3,5-difluoro-phenylamino)-8H-pyrido[2,3-d]pyrimidin-7-one]
890 nM	150 nM	470 nM	290 nM	290 nM				Cc1cc(Nc2ncc3ccc(=O)n(C(C)C)c3n2)cc(C)c1O [Example 441, 2-(4-Hydroxy-3,5-dimethyl-phenylamino)-8-isopropyl-8H-pyrido[2,3-d]pyrimidin-7-one]
30 nM	220 nM	280 nM	340 nM	510 nM				CC(=O)Nc1cc(Nc2ncc3ccc(=O)n(C4CCCC4)c3n2)ccc1C [Example 558, N-[5-(8-Cyclopentyl-7-oxo-7,8-dihydro-pyrido[2,3-d]pyrimidin-2-ylamino)-2-methyl-phenyl]-acetamide]
280 nM	210 nM	500 nM	1700 nM	550 nM				COc1cc(Nc2ncc3ccc(=O)n(C4CCCC4)c3n2)cc(C(F)(F)F)c1 [Example 543, 8-Cyclopentyl-2-(3-methoxy-5-trifluoromethyl-phenylamino)-8H-pyrido[2,3-d]pyrimidin-7-one]
150 nM	66 nM	140 nM	330 nM	250 nM				O=c1ccc2cnc(Nc3ccc(C(F)(F)F)cc3)nc2n1C1CCCC1 [Example 533, 8-Cyclopentyl-2-(4-trifluoromethyl-phenylamino)-81H-pyrido[2,3-d]pyrimidin-7-one]
1700 nM	29 nM	100 nM	280 nM	150 nM				CCC(C)n1c(=O)ccc2cnc(Nc3ccc(F)c(C(F)(F)F)c3)nc21 (centres unmarked) [Example 458, 8-sec-Butyl-2-(4-fluoro-3-trifluoromethyl-phenylamino)-8H-pyrido[2,3-d]pyrimidin-7-one]
1200 nM	27 nM	110 nM	290 nM	99 nM				CCC(CC)n1c(=O)ccc2cnc(Nc3ccc4c(c3)CCC4)nc21 [Example 525, 8-(I-Ethyl-propyl)-2-(indan-5-ylamino)-8H-pyrido[2,3-d]pyrimidin-7-one]
660 nM	190 nM	250 nM	440 nM	280 nM				O=c1ccc2cnc(Nc3ccc4[nH]c5ccccc5c4c3)nc2n1CC1CC1 [Example 582, 2-(9H-Carbazol-3-ylamino)-8-cyclopropylmethyl-8H-pyrido[2,3-d]pyrimidin-7-one]
1390 nM	64 nM	415 nM	1340 nM	555 nM				O=c1ccc2cnc(Nc3ccc(Cl)c(C(F)(F)F)c3)nc2n1C1CCCC1 [Example 546, 2-(4-Chloro-3-trifluoromethyl-phenylamino)-8-cyclopentyl-8H-pyrido[2,3-d]pyrimidin-7-one]
168 nM	74.5 nM	177 nM	215 nM	340 nM				CCC(C)n1c(=O)ccc2cnc(Nc3ccccc3)nc21 (centres unmarked) [Example 446, 8-sec-Butyl-2-phenylamino-8H-pyrido[2,3-d]pyrimidin-7-one]
160 nM	46.5 nM	25.3 nM	96.5 nM	45.5 nM				CCCCn1c(=O)ccc2cnc(Nc3ccc(O)c(Cl)c3)nc21 [Example 383, 8-Butyl-2-(3-chloro-4-hydroxy-phenylamino)-8H-pyrido[2,3-d]pyrimidin-7-one]
114 nM	13 nM	22 nM	40 nM	25.5 nM				CCC(C)n1c(=O)ccc2cnc(Nc3ccc(O)c(Cl)c3)nc21 (centres unmarked) [Example 452, 8-sec-Butyl-2-(3-chloro-4-hydroxy-phenylamino)-8H-pyrido[2,3-d]pyrimidin-7-one]
230 nM	88 nM	350 nM	1400 nM	420 nM				CCCCn1c(=O)ccc2cnc(Nc3ccc(I)c(Cl)c3)nc21 [Example 398, 8-Butyl-2-(3-chloro-4-iodo-phenylamino)-8H-pyrido[2,3-d]pyrimidin-7-one]
220 nM	50 nM	160 nM	290 nM	140 nM				CCC(CC)n1c(=O)ccc2cnc(Nc3ccc(Cl)c(Cl)c3)nc21 [Example 511, 2-(3,4-Dichloro-phenylamino)-8-(1-ethyl-propyl)-8H-pyrido[2,3-d]pyrimidin-7-one]
1400 nM	480 nM	820 nM	1500 nM	1100 nM				CCC(C)n1c(=O)ccc2cnc(Nc3ccc(F)c([N+](=O)[O-])c3)nc21 (centres unmarked) [Example 475, 8-sec-Butyl-2-(4-fluoro-3-nitro-phenylamino)-8H-pyrido[2,3-d]pyrimidin-7-one]
260 nM	52.5 nM	94.7 nM	160 nM	113 nM				CC(C)n1c(=O)ccc2cnc(Nc3cccc([N+](=O)[O-])c3)nc21 [Example 406, 8-Isopropyl-2-(3-nitro-phenylamino)-8H-pyrido[2,3-d]pyrimidin-7-one]
475 nM	59.8 nM	122 nM	446 nM	204 nM				CCCCn1c(=O)ccc2cnc(Nc3ccc(OC)c(Cl)c3)nc21 [Example 365, 8-Butyl-2-(3-chloro-4-methoxy-phenylamino)-8H-pyrido[2,3-d]pyrimidin-7-one]
232 nM	647 nM				131 nM	600 nM	241 nM	8-(1-Ethyl-propyl)-2-(3-trifluoromethyl-phenylamino)-8H-pyrido[2,3-d]pyrimidin-7-one [Example 485]
850 nM	180 nM	770 nM	1800 nM	490 nM				COc1cc(Nc2ncc3ccc(=O)n(C(C)C)c3n2)cc(C(F)(F)F)c1 [Example 425, 8-Isopropyl-2-(3-methoxy-5-trifluoromethyl-phenylamino)-8H-pyrido[2,3-d]pyrimidin-7-one]
200 nM	160 nM	81 nM	440 nM	360 nM				O=c1ccc2cnc(Nc3ccc4c(c3)CCC4)nc2n1CC1CC1 [Example 587, 8-Cyclopropylmethyl-2-(indan-5-ylamino)-8H-pyrido[2,3-d]pyrimidin-7-one]
98 nM	16 nM	74 nM	340 nM	110 nM				CCC(CC)n1c(=O)ccc2cnc(Nc3ccc(Cl)c(C)c3)nc21 [Example 500, 2-(4-Chloro-3-methyl-phenylamino)-8-(1-ethyl-propyl)-8H-pyrido[2,3-d]pyrimidin-7-one]
120 nM	190 nM	84 nM	530 nM	430 nM				O=c1ccc2cnc(Nc3cc([N+](=O)[O-])ccc3F)nc2n1CC1CC1 [Example 572, 8-Cyclopropylmethyl-2-(2-fluoro-5-nitro-phenylamino)-8H-pyrido[2,3-d]pyrimidin-7-one]
97.5 nM	96.5 nM	86 nM	340 nM	150 nM				CCCCn1c(=O)ccc2cnc(Nc3ccc4[nH]ccc4c3)nc21 [Example 378, 8-Butyl-2-(1H-indol-5-ylamino)-8H-pyrido[2,3-d]pyrimidin-7-one]
1780 nM	124 nM	970 nM	1600 nM	905 nM				COc1ccc(Nc2ncc3ccc(=O)n(CC(F)(F)F)c3n2)cc1OC [Example 600, 2-(3,4-Dimethoxy-phenylamino)-8-(2,2,2-trifluoro-ethyl)-8H-pyrido[2,3-d]pyrimidin-7-one]
3500 nM	310 nM	260 nM	1600 nM	560 nM				COc1cc(Nc2ncc3ccc(=O)n(CC4CC4)c3n2)cc(OC)c1OC [Example 569, 8-Cyclopropylmethyl-2-(3,4,5-trimethoxy-phenylamino)-8H-pyrido[2,3-d]pyrimidin-7-one]
160 nM	160 nM	430 nM	830 nM	590 nM				CCCn1c(=O)ccc2cnc(Nc3ccc(N(C)C(C)=O)cc3)nc21 [Example 345, N-Methyl-N-[4-(7-oxo-8-propyl-7,8-dihydro-pyrido[2,3-d]pyrimidin-2-ylamino)-phenyl]-acetamide]
